Measurements as given in patent US20210278408A1, “METHODS OF TREATMENT OF CANCER WITH SUBSTITUTED PYRROLE AND PYRAZOLE COMPOUNDS AND DIAGNOSIS OF CANCERS SUSCEPTIBLE TO TREATMENT WITH SUBSTITUTED PYRROLE AND PYRAZOLE COMPOUNDS” (Bantam Pharmaceutical, LLC, priority 2018, published 2021).
Where two headings read alike, the source gives them in different places.

Tested on: 407 cancer cell lines
Test: Cell viability of cancer cell lines (IC50), CellTiter-Glo Viability Assay, 96 h
Format: cell-based
Conditions: for IC50: read-out: Absolute IC50
Description: Viability was determined by using the 50% inhibitory concentration (IC50) as determined with the CellTiter-Glo® Viability Assay (Promega).
Experiments were initiated by first thawing and equilibrating the CellTiter-Glo® Buffer to room temperature. The lyophilized CellTiter-Glo® Substrate was also equilibrated to room temperature. The lyophilized substrate was reconstituted with the CellTiter-Glo® buffer to form the CellTiter-Glo® Reagent.
Cells were harvested during the logarithmic growth period, counted, and the cell concentration adjusted to 4.44×10^4 cells/mL using culture medium.
Cells were allowed to grow overnight and the following day, the TO reading was obtained by adding 10 μL culture medium to each well of Plate A. The plate was allowed to equilibrate at room temperature for thirty minutes, after which 50 μL CellTiter-Glo® reagent was added to each well. The contents were mixed for 5 min on an orbital shaker to induce cell lysis. Plates were incubated for 20 minutes to stabilize the luminescent signal and the TO luminescence recorded.
Test plate B was incubated for 96 h in the humidified incubator at 37° C. with 5% CO2.
Following the incubation, the plate was equilibrated at room temperature for thirty minutes. CellTiter-Glo® (50 μL) was added to each well of the plate and contents mixed for five minutes on an orbital shaker to induce cell lysis. The luminescent signal was allowed to stabilize at room temperature for 20 minutes and the luminescence recorded.
IC50 (EC50) was calculated using a dose-response curve, fitted using a nonlinear regression model with a sigmoidal dose response. Survival rate was calculated using the formula:
The Surviving rate (%)=(LumTest article−LumMedium control)/(LumNon-treated−LumMedium control)×100%.
Absolute IC50 (EC50) was calculated according to the dose-response curve generated by the statistical software (GraphPad Prism 5.0).

## Cc1nn(-c2nc(-c3ccc(C(F)(F)F)cc3)c(SC(C)C)s2)c(C(=O)O)c1-c1cccc(F)c1 [Compound A197, 4-(3-fluorophenyl)-1-(5-(isopropylthio)-4-(4-(trifluoromethyl)phenyl)thiazol-2-yl)-3-methyl-1H-pyrazole-5-carboxylic acid]
Homo sapiens, TT, 96 h, TT cells, 96 h
  IC50: 2.07 µM
Homo sapiens, Toledo, 96 h, Toledo cells, 96 h
  IC50: 1.45 µM
Homo sapiens, U2OS, 96 h, U-2 OS cells, 96 h
  IC50: 16.8 µM
Homo sapiens, U2932, 96 h, U-2932 cells, 96 h
  IC50: 0.46 µM
Homo sapiens, U-87 MG, 96 h, U-87 MG cells, 96 h
  IC50: 24.9 µM
Homo sapiens, U-251, 96 h, U251 cells, 96 h
  IC50: 0.28 µM
Homo sapiens, U-937, 96 h, U-937 cells, 96 h
  IC50: 0.41 µM
Homo sapiens, UACC-812, 96 h, UACC-812 cells, 96 h
  IC50: > 30 µM
Homo sapiens, UMUC3, 96 h, UM-UC-3 cells, 96 h
  IC50: 0.93 µM
Homo sapiens, UO-31, 96 h, UO.31 cells, 96 h
  IC50: > 30 µM
Homo sapiens, WM 266-4, 96 h, WM-266-4 cells, 96 h
  IC50: > 30 µM
Homo sapiens, WSU-NHL, 96 h, WSU-NHL cells, 96 h
  IC50: 0.48 µM
Homo sapiens, WSUDLCL2, 96 h, WSU-DLCL2 cells, 96 h
  IC50: 0.68 µM
Homo sapiens, Y79, 96 h, Y-79 cells, 96 h
  IC50: > 30 µM
Homo sapiens, Z-138, Z-138
  IC50: 1.5 µM
Homo sapiens, ZR-75-1, ZR-75-1
  IC50: 7.81 µM
Homo sapiens, ZR-75-30, 96 h
  IC50: > 30 µM
HuCCT1, 96 h
  % inhibition at top conc.: 51.19%
Ishikawa, 96 h
  % inhibition at top conc.: 82.51%
JAR
  IC50: 0.67 µM
JEG-3 cells, 96 h
  % inhibition at top conc.: 52.54%
JHH1, 96 h, JHH-1 cells, 96 h
  IC50: > 30 µM
JHH7, 96 h, JHH-7 cells, 96 h
  IC50: 0.66 µM
JHH-4, 96 h, JHH-4 cells, 96 h
  IC50: 1.5 µM
JVM13, JVM-13
  IC50: 0.39 µM
KATO III, 96 h
  % inhibition at top conc.: 45.89%
KPL4, KPL-4
  IC50: 0.25 µM
L-82, L-82
  IC50: 3.78 µM
LNCaP clone FGC, 96 h
  % inhibition at top conc.: 76.07%
Li-7, Li-7
  IC50: 0.85 µM
MDA-MB-436, 96 h
  % inhibition at top conc.: 54.72%
MKN1 cells, 96 h
  % inhibition at top conc.: 53.97%
MKN45, 96 h
  % inhibition at top conc.: 14.51%
MKN74 cells, 96 h
  % inhibition at top conc.: 52.90%
MM.1R
  IC50: 1.19 µM
MOLM16, 96 h, MOLM-16 cells, 96 h
  IC50: 0.35 µM
MS751, 96 h, MS751 cells, 96 h
  IC50: > 30 µM
NAMALWA CSN/70
  IC50: 0.49 µM
NCI-H69 cells, 96 h
  % inhibition at top conc.: 21.37%
NCI-H82, 96 h
  % inhibition at top conc.: 92.52%
NCI-H146 cells, 96 h
  % inhibition at top conc.: 37.67%
NCI-H209 cells, 96 h
  % inhibition at top conc.: 45.11%
NCI-H292 cells, 96 h
  % inhibition at top conc.: 54.61%
NCI-H322, 96 h, NCI-H322 cells, 96 h
  IC50: 0.29 µM
NCI-H358 cells, 96 h
  % inhibition at top conc.: 68.44%
NCI-H446 cells, 96 h
  % inhibition at top conc.: 51.21%
NCI-H460 cells, 96 h
  % inhibition at top conc.: 49.03%
NCI-H520 cells, 96 h
  % inhibition at top conc.: 76.45%
NCI-H526 cells, 96 h
  % inhibition at top conc.: 44.57%
NCI-H727 cells, 96 h
  % inhibition at top conc.: 35.60%
NCI-H820, 96 h, NCI-H820 cells, 96 h
  IC50: 0.35 µM
NCI-H820 cells, 96 h
  % inhibition at top conc.: 78.69%
NCI-H1048 cells, 96 h
  % inhibition at top conc.: 66.49%
NCI-H1155 cells, 96 h
  % inhibition at top conc.: 79.14%
NCI-H1299 cells, 96 h
  % inhibition at top conc.: 83.01%
NCI-H1435, NCI-H1435
  IC50: 0.39 µM
NCI-H1568, 96 h, NCI-H1568 cells, 96 h
  IC50: 0.27 µM
NCI-H1648 cells, 96 h
  % inhibition at top conc.: 57.33%
NCI-H1651 cells, 96 h
  % inhibition at top conc.: 67.37%
NCI-H1688, NCI-H1688
  IC50: > 30 µM
NCI-H1703 cells, 96 h
  % inhibition at top conc.: 73.10%
NCI-H1781, 96 h, NCI-H1781 cells, 96 h
  IC50: > 30 µM
NCI-H1792 cells, 96 h
  % inhibition at top conc.: 68.85%
NCI-H1915, 96 h, NCI-H1915 cells, 96 h
  IC50: > 30 µM
NCI-H1975 cells, 96 h
  % inhibition at top conc.: 25.02%
NCI-H1993 cells, 96 h
  % inhibition at top conc.: 78.76%
NCI-H2087 cells, 96 h
  % inhibition at top conc.: 50.14%
NCI-H2170 cells, 96 h
  % inhibition at top conc.: 75.97%
NCI-H2228 cells, 96 h
  % inhibition at top conc.: 54.12%
NCI-N87, 96 h
  % inhibition at top conc.: 54.19%
NK-92MI
  IC50: 6.58 µM
NOZ
  IC50: 0.71 µM
NUGC-3 cells, 96 h
  % inhibition at top conc.: 63.39%
NUGC-4 cells, 96 h
  % inhibition at top conc.: 62.77%
OCUG-1, OCUG-1
  IC50: 1.25 µM
OCUM1, 96 h, OCUM-1 cells, 96 h
  IC50: > 30 µM
OCUM-1 cells, 96 h
  % inhibition at top conc.: 19.71%
OCUM-2D cells, 96 h
  % inhibition at top conc.: 65.33%
OCUM-2M cells, 96 h
  % inhibition at top conc.: 66.13%
OE19, 96 h
  % inhibition at top conc.: 53.21%
OSC19, 96 h, OSC-19 cells, 96 h
  IC50: > 30 µM
OVCAR-3 cells, 96 h
  % inhibition at top conc.: 46.65%
OVCAR-8 cells, 96 h
  % inhibition at top conc.: 75.04%
OZ
  IC50: > 30 µM
PC-9 cells, 96 h
  % inhibition at top conc.: 52.79%
PEER
  IC50: 1.87 µM
PL45, PL45
  IC50: 1.19 µM
RD-ES
  IC50: > 30 µM
RPMI-2650 cells, 96 h
  % inhibition at top conc.: 52.41%
RT4 cells, 96 h
  % inhibition at top conc.: 49.68%
SCC-4, 96 h
  % inhibition at top conc.: 26.22%
SCH cells, 96 h
  % inhibition at top conc.: 53.08%
SF763, SF-763
  IC50: 0.76 µM
SK-MEL-5, 96 h
  % inhibition at top conc.: 25.67%
SK-MEL-28, 96 h
  % inhibition at top conc.: 13.20%
SK-OV-3 cells, 96 h
  % inhibition at top conc.: 34.62%
SNU620, 96 h, SNU-620 cells, 96 h
  IC50: > 30 µM
SNU668, 96 h, SNU-668 cells, 96 h
  IC50: > 30 µM
SNU-1 cells, 96 h
  % inhibition at top conc.: 74.67%
SNU-5, 96 h
  % inhibition at top conc.: 54.08%
SNU-81
  IC50: > 30 µM
SNU-216, 96 h, SNU-216 cells, 96 h
  IC50: > 30 µM
SNU-368
  IC50: > 30 µM
SNU-484, 96 h, SNU-484 cells, 96 h
  IC50: > 30 µM
SNU-484 cells, 96 h
  % inhibition at top conc.: 45.94%
SNU-601, 96 h, SNU-601 cells, 96 h
  IC50: 0.49 µM
SNU-601 cells, 96 h
  % inhibition at top conc.: 67.28%
SNU-638 cells, 96 h
  % inhibition at top conc.: 56.77%
SNU-719 cells, 96 h
  % inhibition at top conc.: 32.64%
SNU-739, SNU-739
  IC50: 20.9 µM
SNU-761 cells, 96 h
  % inhibition at top conc.: 59.03%
SNU-2535 cells, 96 h
  % inhibition at top conc.: 46.87%
SNU-C2A
  IC50: 0.58 µM
SW579, 96 h, SW579 cells, 96 h
  IC50: > 30 µM
SW684 cells, 96 h
  % inhibition at top conc.: 4.22%
SW948 cells, 96 h
  % inhibition at top conc.: 46.17%
SW1271, SW1271
  IC50: > 30 µM
U266B1
  IC50: > 30 µM
UACC-812 cells, 96 h
  % inhibition at top conc.: 20.05%
YCC-1 cells, 96 h
  % inhibition at top conc.: 29.02%
YCC-6 cells, 96 h
  % inhibition at top conc.: 56.86%
YCC-10, 96 h
  % inhibition at top conc.: 38.86%
YCC-11, 96 h, YCC-11 cells, 96 h
  IC50: > 30 µM
YCC-11 cells, 96 h
  % inhibition at top conc.: 48.65%
ZR-75-30, 96 h
  % inhibition at top conc.: 10.01%
